Starred links: 1 amine or outer side, 2 acyl side, 3 side chain; linkers in the order of their positions; H or OH if unused. Residues, ends and D or L forms follow the SMILES beside them. Suc = O=C(CCC(=O)[*:2])[*:1]
| Structure (SMILES) | melting point [°C] |
| --- | --- |
| Cc1cnc2c(c1)CCCC2C(N)=O (stereo not given) | 104 |
| COc1ccc2cc(C3CCN(C[C@H](O)COc4cccc5oc(C6=NC(C)(C)CO6)cc45)CC3)ccc2c1 | 133 to 134 |
| COc1cc(N2CCC(Br)C2=O)ccc1Cl (stereo not given) | 113 to 115 |
| CCOC(=O)NCCCCCCNC(=O)OCC | 80 to 82 |
| CCC1(C)CCC(N)=CC1=O (stereo not given) | 99 to 100 |
| CC1(CCl)Oc2ccc([N+](=O)[O-])cc2O1 (stereo not given) | 72 to 73 |
| O=C(c1cccnc1)c1cc(-c2ccccc2)c(N2CCOCC2)s1 | 180 |
| C=CCc1c(O)nc(N)nc1O | > 250 |
| CCOC(=O)c1ncc2[nH]c3cccc(OCc4ccccc4)c3c2c1COC | 130 to 131 |
| OC1(c2c[nH]c(-c3ccc(F)cc3)c2-c2ccncc2)CCNCC1 | 197 to 199 |
| CC(=O)NC1CCc2c(C)cc(C)c(O)c21 (stereo not given) | 131 to 132 |
| CC1CC(=O)NN=C1c1ccc2c(c1)nc(C1CC1)n2Cc1ccc(-c2ccccc2-c2nnn[nH]2)cc1 (stereo not given) | 265 |
| CCOc1nc(OCC)nc(-n2nc(SC)nc2N)n1 | 201 |
| CCOC(=O)c1nnc2ccc(I)cc2c1O | 242 to 244 |
| CC(c1ccccc1)n1c(N)c(C#N)c2c1CCCC2 (stereo not given) | 129 |
| O=C1N(CC2CCCO2)c2ccccc2C12COc1cc3c(cc12)CCCO3 (stereo not given) | 151 to 156 |
| CC(C)(C)CNc1nc(N2CCCC2)cc(N2CCNCC2)n1 | 118 to 120 |
| O=[N+]([O-])c1cc(CCC(O)=S)cc(O)c1O | 91 to 93 |
| COC1(c2ccccc2)CCc2c(C)c(O)c(C)c(C)c2O1 (stereo not given) | 190 to 192 |
| O=C1CCC(N2C(=O)c3cccc(OCc4ccc(CN5CCc6ncccc6C5)cc4)c3C2=O)C(=O)N1 (stereo not given) | 165 to 167 |
| COc1cc2c(cc1Br)CCC2=O | 149 to 151 |

| Structure (SMILES) | melting point [°C] |
| --- | --- |
| O=C1COc2ccc(C3=Cc4cccnc4SC3c3ccccc3)cc2N1 (stereo not given) | 242 to 244 |
| NCCNc1cc(NCCO)c(Cl)cc1[N+](=O)[O-] | 160 |
| CCOc1cccnc1CSCCN=C(NC#N)SC | 98 to 99 |
| CCCCCCCCCCCCCCCCCCNC(=O)OCC(CNS(=O)(=O)CCCI)NC(=O)OCCCC (stereo not given) | 96 to 98 |
| CC(C)CN(C=Nc1nnnc2c1ncn2C1CC(O)C(CO)O1)CC(C)C (stereo not given) | 138 to 140 |
| COc1ccc2cnc(Nc3ccc(N4CCNCC4)cn3)nc2c1C1CCCC1 | > 200 |
| O=C(Nc1cccc(Br)c1)NC1C(=O)N(CC23CC4CC(CC(C4)C2)C3)c2ccccc2N(c2ccccc2)C1=O (stereo not given) | 254 |
| Cc1ccc(S(=O)(=O)NC(=O)NC2N=C(c3ccccc3)c3ccccc3N(C)C2=O)cc1 (stereo not given) | 244 to 246 |
| COc1cc2c(cc1OCc1ccccc1)C1Cc3c(Cl)cc(OC)c(OC(=O)c4ccccc4)c3CN1CC2 (stereo not given) | 170 to 172 |
| COC1CCC2C3CCC4CC(=O)C=CC4(C)C3CCC12C (stereo not given) | 115 to 117 |
| COc1ccc(-c2nc(-c3cccn3Cc3ccccc3)[nH]c2-c2ccc(OC)cc2)cc1 | 183 |
| Cc1ccc2c3c(c(=O)oc2c1)CNCC3 | 128 to 130 |
| N#Cc1cccc2c1CCCc1ccccc1-2 | 109 to 111 |
| O=[N+]([O-])c1cccc(C2Nn3cc(-c4ccc(-c5ccccc5)cc4)nc3S2)c1 (stereo not given) | 263 to 265 |
| CC(C)c1nc(-c2ncn3c2COC(=O)c2ccccc2-3)no1 | 143 to 144 |
| CN(C)Cc1ccc(SC2CCNCC2)cc1 | 52 |
| Cc1c(-c2ccc(O)cc2)n(Cc2ccc(OCCN3CCC(C)CC3)cc2)c2ccc(O)cc12 | 154 to 162 |
| CCCC1=C(C#N)C(c2ccccc2Cl)c2c(n[nH]c2-c2ccc3ccccc3c2)N1 (stereo not given) | > 270 |
| CN1CCN(c2nc(Oc3ccccc3)c3ccccc3n2)CC1 | 102 to 103 |
| N#Cc1ccc(N2C(=O)NC(CO)(CO)C2=O)cc1C(F)(F)F | 207 to 208 |

More lines, now with the values ahead:

| melting point [°C] | Structure (SMILES) |
| --- | --- |
| 119 to 124 | COc1ccccc1-c1ccc(C(=O)N2Cc3ccc(C(=O)NCc4cccnc4)n3Cc3ccccc32)cc1C |
| 145 to 147 | COc1ccccc1SCC(O)CN(C)Cc1cc2c(=O)c(C(=O)NCc3ccc(Cl)cc3)cn(C)c2o1 (stereo not given) |
| 185 to 186 | CCc1cn(C2CC(O)C(CCC(O)Cc3c(Cl)cccc3Cl)O2)c(=O)[nH]c1=O (mixture of isomers) |
| 169 to 172 | CCOC(=O)c1cncc(-c2cnc3c(c2)N(Cc2cc(F)ccc2F)CCN3)c1 |
| > 250 | CCCNCC1Cc2cc(F)cc(-c3c(Cl)cccc3Cl)c2O1 (stereo not given) |
| 108 to 110 | CC(C)COc1c(-c2ccc(S(C)(=O)=O)cc2)cnn(CC(F)(F)F)c1=O |
| 161 to 163 | CN1CCCC1C1CCCN(CC(=O)N2c3ccccc3NC(=O)c3ccccc32)C1 (stereo not given) |
| 102 to 106 | CCCC[C@H](NC(=O)[C@H](CC(C)C)NC(=O)c1ccc(C(F)(F)F)cc1F)C(=O)CSCc1ccco1 |
| 160 to 162 | CCc1ccc(C(=O)NCc2ccc3c(c2)C(=O)N([C@@]2(C)CCC(=O)NC2=O)C3=O)cc1 |
| 214 | CC(=O)c1ccc(C#Cc2ccc(C(C)=O)s2)s1 |
| 182 to 183 | N#Cc1cccc(C2C=C(C(F)(F)F)NC3=C2C(=O)CCC3)c1 (stereo not given) |
| 179 to 180 | COc1ccc(C(=O)Nc2ccccc2)c2c1OCC2CC(=O)OCc1ccccc1 (stereo not given) |
| 159 to 160 | O=C(c1cccc(Br)c1)C(Br)C(Br)c1cccc(Br)c1 (stereo not given) |
| 103 to 107 | Cc1cc(SC2=C(O)CC(CCc3cc(Cl)c(N)c(Cl)c3)(C(C)C)OC2=O)c(C(C)(C)C)cc1N (stereo not given) |
| 264 to 271 | CC(C)(O)Cn1c(CO)nc2c(N)nc3ccccc3c21 |
| 127 to 129 | CN(C(=NC#N)Nc1cccnc1)C(NC(=O)c1ccc(Cl)cc1)C(C)(C)C (stereo not given) |
| 85 to 86 | CCOC(=O)Cc1ccc(-c2nc(COc3ccc(COc4nn(-c5ccccc5)cc4/C=C\c4cncn4CC)cc3OC)c(C)o2)cc1 |
| 131 to 133 | COC(=O)c1ccc2c(ccn2Cc2cccc(NC(=O)OC3CCCC3)c2)c1 |
| 205 to 207 | COc1ccc(CN2C(=O)[C@@H](NC(=O)Cc3ccccc3)[C@H]2CNC(C)=O)c(OC)c1 (relative stereo) |
| 153 to 155 | Nc1cc(C(=O)O)cc(SCc2ccsc2)c1Oc1ccccc1 |
| 74 | COc1ccc(S(=O)(=O)C(C)(Cc2cccc(OCCN3CCCCC3)c2)C(N)=O)cc1 (stereo not given) |
| 166 to 168 | NS(=O)(=O)Oc1ccc(-c2ccccc2)cc1 |
| 260 to 262 | Nc1c(-c2ccc(C(F)(F)F)cc2)nc2ccc(F)cc2c1C(=O)O |
| 170 to 171 | CCNc1nc(OCc2ccccc2)nc2c1ncn2C1OC(CO)C(O)C1O (stereo not given) |
| 54 | Fc1ccc2occ(CCN3CCN(c4cccc5cccnc45)CC3)c2c1 |
| 122 to 124 | COc1ccc(C(=O)CC(SC(C)=O)C(=O)O)cc1 (stereo not given) |
| 170 to 173 | O=C(O)c1coc2ccc(OCc3ccccc3)cc2c1=O |

| melting point [°C] | Structure (SMILES) |
| --- | --- |
| 181 to 183 | COc1cccc(NC(=O)N[C@H]2C[C@H](C(=O)O)Nc3cc(Cl)cc(Cl)c32)c1 (relative stereo) |
| 202 to 206 | CC(C)(C)OC(=O)N1CCC(c2nc3cc(-c4ccc(C(N)=O)c(F)c4)ccc3o2)CC1 |
| 219 to 221 | CCn1cc(C(=O)O)c(=O)c2cc(F)c(F)c(C)c21 |
| 139 to 141 | CCNC(=O)C1CCCN1C(=O)C(C)NC(=O)CCC(=O)O (stereo not drawn) (Suc-Ala-Pro-NHEt; configuration not given here) |
| 147 to 165 | CC(COc1ccc(O)c(C(N)=O)c1)NCC(O)c1ccccn1 (stereo not given) |
| 112 to 113 | CCCN(CCC)C(=O)C(CCC(=O)NC)NC(=O)C=Cc1ccco1 (stereo not given) |
| 112 | CCN(CC)CCOc1ccc(Nc2ncc3c(n2)N(C)C(=O)N(Cc2ccc(OC)cc2)C3)cc1 |
| 109 to 112 | CN1C(=O)CC[C@]2(C)c3ccc(Sc4ccccc4)cc3CC[C@@H]12 |
| 143 | COc1ccc(C(=O)N2CCCC(=O)c3ccc(Cl)cc3CCC2=O)cc1 |
| 248 | CCOC(=O)c1[nH]cc2c1NC1=C(C(=O)CNC1)C2c1ccc(Sc2nc3ccc(OC)cc3[nH]2)o1 (stereo not given) |
| 140 to 146 | COc1nc(C)nc(NC(=O)NS(=O)(=O)c2ccccc2Cc2nnc(SC)s2)n1 |
| 176 to 177 | Cc1ccc(N2CCN(Cc3n[nH]c4c(F)cccc34)CC2)cc1 |
| 230 to 231 | CCNCC1CCN(c2c(F)cc3c(=O)c(C(=O)O)cn(C(C)C)c3c2F)C1 (stereo not given) |
| 114 to 118 | CCCOc1cccc(C(=O)O)c1O |
| 130 | CC1(C)COC(=S)N(Cc2ccccc2NS(=O)(=O)C(F)(F)F)C1 |
| 182 | Nc1ccc(Nc2c(NCc3ccco3)cc(C(=O)O)cc2S(=O)(=O)Nc2ccccc2N)cc1 |
| 146 to 148 | COC(=O)c1ccc(-c2nc(-c3ccc(OC(F)F)cc3)cs2)cc1 |
| 124 to 127 | CCOCc1nc2c(N)nc3cc(NS(=O)(=O)CC)ccc3c2n1CC(C)(C)O |
| 148 to 149 | CCCCCOc1cc2c(cc1/C=C/c1ccc(C(=O)O)cc1)C(C)(C)CCC2(C)C |
| 202 to 203 | COc1cc(OC)c(-c2cccs2)cc1/C=C/C(=O)c1ccc(S(=O)(=O)Nc2cc(C)on2)cc1 |
| 295 to 296 | CCn1cc(C(=O)c2sc(NC(=O)c3ccncc3)nc2-c2ccco2)ccc1=O |
| 196 to 197 | COc1ccc2c(c1)C1=C(SCC3(CCN(Cc4ccc(F)cc4)CC3)O1)C(=O)C2=O |
| 108 to 112 | CCC(C(=O)O)c1ccc(C(=O)c2ccc(Cl)cc2)n1C (stereo not given) |
| 113 to 114 | CCNS(=O)(=O)c1ccc(C2=C(c3cccc(F)c3)C(=O)C(C)(C)O2)cc1 |
| 125 to 127 | CCCN(CCC)C(=O)Cn1c(-c2cccc(Br)c2)nc2cccnc21 |
| 177 to 190 | CNC(=O)c1ccccc1Nc1nc(Nc2ccc3c(c2)CCN(CC(F)(F)F)CC3)ncc1Cl |
| 170 to 175 | O=C(O)c1ccc2c(c1)C(c1ccccc1Cl)=NC=C1N=NC(C3CC3)N12 (stereo not given) |

From a melting point compilation (Tetko et al.; mined from patent text by program, amines drawn as free bases though some values may be those of a salt)
